In article PMC3510433, “Adamantyl carboxamides and acetamides as potent human 11β-hydroxysteroid dehydrogenase type 1 inhibitors” (Bioorganic & Medicinal Chemistry, 2012):
Marks after values point to notes of the source that are not given here.

Experiments:
[1] = molecular target: T1, human 11β-HSD1 (Homo sapiens, UniProt P28845); experiment: 11β-HSD1 inhibition, human HEK-293 cell based assay (SPA); conditions: for inhibition at 1 µM: HEK293, read-out: Percentage of inhibition measured at 1 μM; for 11β-HSD1 inhibitory activity (in words): at 1 μM where stated
T1 construct: expressed in transfected cells; host or cells: HEK-293 (human), stably transfected
T1 sequence (P28845 whole entry): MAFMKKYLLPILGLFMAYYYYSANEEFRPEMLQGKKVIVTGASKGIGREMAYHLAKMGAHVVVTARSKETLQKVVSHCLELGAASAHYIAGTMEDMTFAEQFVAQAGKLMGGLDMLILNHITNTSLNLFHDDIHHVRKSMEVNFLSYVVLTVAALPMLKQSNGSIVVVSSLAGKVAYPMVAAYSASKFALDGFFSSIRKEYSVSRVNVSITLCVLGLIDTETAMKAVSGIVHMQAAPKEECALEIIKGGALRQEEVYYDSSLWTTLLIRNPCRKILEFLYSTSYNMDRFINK
Description: 11β-HSD1 inhibition was measured in intact human HEK-293 cells to reveal the true inhibitory activity. Differences in observed effects for different compounds may reflect combinatorial factors including the ability to penetrate the cell membrane, the stability within the cell and the binding ability to the enzyme.
The cell-based assays were conducted on the human HEK-293 cell line stably transfected with the HSD11B1 gene.[28] 11β-HSD1 activity was determined by measuring the amount of tritiated product formed using a scintillation proximity assay (SPA).
Cells were incubated in 96-well micro-plates in the presence of tritiated cortisone substrate and the assay plates contained internal high and low controls to allow calculation of percentage inhibition. Each well of a 96-well culture plate was seeded with human 11β-HSD1 overexpressed HEK293 cells in 100 μL medium. When the cells were 80% confluent, the medium was removed from each well then 100 μL of fresh, serum-free, medium containing ^3H-cortisone (22 nM) and test compound in 1% DMSO was added. The control wells were also dispensed. […] The plate was incubated at 37 °C for 2 h, after which 50 μL of medium was removed from each well and transferred to a microplate containing 100 μL of a pre-incubated mixture of anti-cortisol antibody and SPA bead. The mixture was incubated with gentle shaking until equilibrium was reached, before transferring to a scintillation counter to establish the enzyme activity in each sample.
The compounds were initially tested at a concentration of 1 μM. Those compounds showing over 70% inhibition of 11β-HSD1 at 1 μM were subjected to an IC50 measurement. A Merck compound 544 was used as the reference compound in the assay (IC50 = 50 ± 20 nM).[19] The IC50 values are reported as the mean value of 3 measurements with variance less than 20%. IC50 values were calculated from the dose-response curve using Microsoft Excel add-in XLfit with a Four Parameter Logistic nonlinear regression model.

[2] = 1 μM, HEK-293 cells transfected with HSD11B1
[3] = HEK-293 cells stably transfected with HSD11B1, mean of 3 measurements

| Compound | inhibition at 1 µM [1, 2] | melting point | IC50 [1, 3] | other results |
| --- | --- | --- | --- | --- |
| Cc1cccc(CN(C)C(=O)C23CC4CC(CC(C4)C2)C3)n1 [Compound 27, N-Methyl-N-((6-methylpyridin-2-yl)-methyl)adamantane-1-carboxamide] | 48% | 76 to 77.5 °C | – | – |
| Cc1csc(CNC(=O)C23CC4CC(CC(C4)C2)C3)c1 [Compound 9, N-((4-Methylthiophen-2-yl)methyl)-adamantane-1-carboxamide] | 8% | 127 to 128.5 °C | – | – |
| Cc1ccsc1CN(C)C(=O)C12CC3CC(CC(C3)C1)C2 [Compound 6, N-Methyl-N-((3-methylthiophen-2-yl)methyl)adamantane-1-carboxamide] | – | 72 to 73.5 °C | 275 nM | 11β-HSD1 inhibitory activity (in words) [1]: retains nearly the same activity as parent compound 3 |
| CN(CCc1cccs1)C(=O)C12CC3CC(CC(C3)C1)C2 [Compound 28] | – | – | 448 nM | – |
| Cc1csc(CN(C)C(=O)C23CC4CC(CC(C4)C2)C3)n1 [Compound 19, N-Methyl-N-((4-methylthiazol-2-yl)-methyl)adamantane-1-carboxamide] | 31% | – | – | – |
| CN(Cc1ccco1)C(=O)C12CC3CC(CC(C3)C1)C2 [Compound 13] | – | – | 249 nM | – |
| CC(=O)Nc1cccc(CN(C)C(=O)C23CC4CC(CC(C4)C2)C3)c1 [Compound 21, N-(3-Acetamidobenzyl)-N-methyl-adamantane-1-carboxamide] | 22% | 109 to 111 °C | – | – |
| O=C(NCCc1cccs1)C12CC3CC(CC(C3)C1)C2 [Compound 29] | – | – | 679 nM | – |
| O=C(NCc1ccccn1)C12CC3CC(CC(C3)C1)C2 [Compound 26, N-(Pyridin-2-ylmethyl)adamantane-1-carboxamide] | 45% | 91 to 93.5 °C | – | – |
| CN(Cc1ccsc1)C(=O)C12CC3CC(CC(C3)C1)C2 [Compound 12] | – | – | 125 nM | – |
| Cc1ccc(CN(C)C(=O)C23CC4CC(CC(C4)C2)C3)s1 [Compound 10, N-Methyl-N-((5-methylthiophen-2-yl)-methyl)adamantane-1-carboxamide] | 32% | 83 to 85.5 °C | – | 11β-HSD1 inhibitory activity (in words) [1]: weak inhibition |
| CN(Cc1nccn1C)C(=O)C12CC3CC(CC(C3)C1)C2 [Compound 17, N-Methyl-N-((1-methyl-1H-imidazol-2-yl)methyl)adamantane-1-carboxamide] | 24% | 175 to 176 °C | – | – |
| CN(Cc1ccc(Cl)s1)C(=O)C12CC3CC(CC(C3)C1)C2 [Compound 11, N-((5-Chlorothiophen-2-yl)methyl)-N-methyladamantane-1-carboxamide] | 29% | 92 to 94 °C | – | 11β-HSD1 inhibitory activity (in words) [1]: weak inhibition |
| O=C(NCc1cccnc1)C12CC3CC(CC(C3)C1)C2 [Compound 25, N-(Pyridin-3-ylmethyl)adamantane-1-carboxamide] | – | – | 676 nM | – |
| CN(Cc1sccc1N)C(=O)C12CC3CC(CC(C3)C1)C2 [Compound 7, N-((3-Aminothiophen-2-yl)methyl)-N-methyladamantane-1-carboxamide] | 12% | 117 to 119 °C | – | 11β-HSD1 inhibitory activity (in words) [1]: sharp decrease of activity |
| O=C(CC12CC3CC(CC(C3)C1)C2)NCc1ccccn1 [Compound 38, 2-(Adamantan-1-yl)-N-(pyridin-2-yl-methyl)acetamide] | – | – | – | Percentage of inhibition measured at 1 μM [1, 2]: 26% ^a |
| Cc1csc(CN(C)C(=O)C23CC4CC(CC(C4)C2)C3)c1 [Compound 8, N-Methyl-N-((4-methylthiophen-2-yl)-methyl)adamantane-1-carboxamide] | 55% | 87 to 88 °C | – | 11β-HSD1 inhibitory activity (in words) [1]: weak inhibition |
| CN(Cc1cccnc1)C(=O)C12CC3CC(CC(C3)C1)C2 [Compound 24, N-Methyl-N-(pyridin-3-ylmethyl)-adamantane-1-carboxamide] | 57% | 57 to 59.5 °C | – | – |
| CN(Cc1ccnn1C)C(=O)C12CC3CC(CC(C3)C1)C2 [Compound 18, N-Methyl-N-((1-methyl-1H-pyrazol-5-yl)-methyl)adamantane-1-carboxamide] | 34% | 102 to 103.5 °C | – | – |
| O=C(NCc1cccs1)C12CC3CC(CC(C3)C1)C2 [Compound 5] | – | – | 403 nM | – |
| O=C(NCc1ccco1)C12CC3CC(CC(C3)C1)C2 [Compound 14, N-(Furan-2-ylmethyl)adamantane-1-carboxamide] | 68% | 69 to 72 °C | – | – |
| Cn1cccc1CNC(=O)C12CC3CC(CC(C3)C1)C2 [Compound 16, N-((1-Methyl-1H-pyrrol-2-yl)meth-yl)-adamantane-1-carboxamide] | – | 117 to 119 °C | 1700 nM | – |
| CN(Cc1cccc(N)c1)C(=O)C12CC3CC(CC(C3)C1)C2 [Compound 20, N-(3-Aminobenzyl)-N-methyladam-antane-1-carboxamide] | – | 105 to 106.5 °C | 118 nM | – |

The next lines start with results.

| inhibition at 1 µM [1, 2] | melting point | IC50 [1, 3] | Compound | other results |
| --- | --- | --- | --- | --- |
| – | 58 to 60 °C | 2200 nM | CN(Cc1cccs1)C(=O)C1(c2ccc(Cl)cc2)CCCC1 [Compound 44, 1-(4-Chlorophenyl)-N-methyl-N-(thio-phen-2-ylmethyl)cyclopentanecarbox-amide] | – |
| – | 76 to 79 °C | 379 nM | O=C(NCCc1ccccn1)C12CC3CC(CC(C3)C1)C2 [Compound 31, N-(2-(Pyridin-2-yl)ethyl)adamant-ane-1-carboxamide] | – |
| – | – | 50 ± 20 nM | C1CCc2nnc(C34CC5CC(CC(C5)C3)C4)n2CC1 [Merck compound 544, reference compound] | – |
| – | 64 to 65 °C | 165 nM | CN(CCc1ccccn1)C(=O)C12CC3CC(CC(C3)C1)C2 [Compound 30, N-Methyl-N-(2-(pyridin-2-yl)ethyl)-adamantane-1-carboxamide] | – |
| – | 87 to 88.5 °C | 1080 nM | CN(Cc1cccs1)C(=O)C12CC3CC(CC1C3)C2 [Compound 39, N-Methyl-N-(thiophen-2-ylmethyl)-tRicyclo[3.3.1.0^(3,7)]nonane-3-carboxamide] | – |
| – | 117 to 119 °C | 349 nM | CN(Cc1ccsc1)C(=O)CC12CC3CC(CC(C3)C1)C2 [Compound 34, 2-(Adamantan-1-yl)-N-methyl-N-(thio-phen-3-ylmethyl)acetamide] | fold reduction in potency compared to 12 ([1]; acetamide vs carboxamide 12): greater than 2 fold |
| 1% | 83 to 85 °C | – | O=C(NCCc1cccnc1)C12CC3CC(CC(C3)C1)C2 [Compound 32, N-(2-(Pyridin-3-yl)ethyl)adamant-ane-1-carboxamide] | – |
| – | – | 1550 nM | CN(Cc1cccs1)C(=O)C1(c2ccc(Cl)cc2)CC1 [Compound 42, 1-(4-Chlorophenyl)-N-methyl-N-(thio-phen-2-ylmethyl) cyclopropanecarbox-amide] | IC50 ([1]; HEK-293 cells): ~1600 nM; fold loss of activity in comparison with 41 ([1]; vs compound 41): ~5.5 fold |
| 66% | 117 to 119 °C | – | O=C(CC12CC3CC(CC(C3)C1)C2)NCc1cccs1 [Compound 33, 2-(Adamantan-1-yl)-N-(thiophen-2-ylmeth-yl)acetamide] | – |
| – | 92 to 95 °C | 2880 nM | Cn1cccc1CNC(=O)CC12CC3CC(CC(C3)C1)C2 [Compound 36, 2-(Adamantan-1-yl)-N-[(1-methyl-1H-pyrrol-2-yl)methyl]acetamide] | – |
| – | – | 385 nM | CN(Cc1cccs1)C(=O)C1(c2ccc(Cl)cc2)CCC1 [Compound 43, 1-(4-Chlorophenyl)-N-methyl-N-(thio-phen-2-ylmethyl)cyclobutanecarbox-amide] | – |
| – | – | 3600 nM | CN(Cc1cccs1)C(=O)C1(C)CCCCC1 [Compound 40, N,1-Dimethyl-N-(thiophen-2-ylmethyl)cyclohexanecarboxamide] | – |
| 67% | 67 to 68.5 °C | – | CN(Cc1cccnc1)C(=O)CC12CC3CC(CC(C3)C1)C2 [Compound 37, 2-(Adamantan-1-yl)-N-methyl-N-(pyridin-3-ylmethyl)acetamide] | – |
| – | 75 to 76.5 °C | 655 nM | CN(Cc1cccn1C)C(=O)CC12CC3CC(CC(C3)C1)C2 [Compound 35, 2-(Adamantan-1-yl)-N-methyl-N-[(1-methyl-1H-pyrrol-2-yl)methyl]acetamide] | fold loss of inhibitory activity compared with 15 ([1]; acetamide vs carboxamide 15): ~6 fold |
